The values below are quoted from earlier work in patent publication US20210137911A1, “NOVEL CHRONOTHERAPY BASED ON CIRCADIAN RHYTHMS” (THE TRUSTEES OF THE UNIVERSITY OF PENNSYLVANIA, priority 2014, published 2021).

Residues, ends and D or L forms follow the SMILES beside them.

For one data set the following is noted: half-life of therapeutic compound as listed in Table 1; cited from earlier work.
As for `CCCCC(C)(O)C/C=C/[C@H]1[C@H](O)CC(=O)[C@@H]1CCCCCCC(=O)OC` (mixture of isomers) [Misoprostol], the “½ Life” value was 0.33 h.

Staying with this data set, now noted: half-life of top selling therapeutic compounds (Table 1); cited from earlier work.
Turning to `C[C@]12CC[C@H](O)CC1=CC[C@@H]1[C@@H]2CC[C@]2(C)C(c3cccnc3)=CC[C@@H]12` [Abiraterone], the “½ Life” value was 5 h.
On to `C[C@H]1O[C@H](O[C@H]2[C@H](O)[C@@H](O)[C@@H](O[C@H]3[C@H](O)[C@@H](O)C(O)O[C@@H]3CO)O[C@@H]2CO)[C@H](O)[C@@H](O)[C@@H]1N[C@H]1C=C(CO)[C@@H](O)[C@H](O)[C@H]1O` (stereo partly shown) [Acarbose], for which the “½ Life” value was 2 h.
Take `CCCC(=O)Nc1ccc(OCC(O)CNC(C)C)c(C(C)=O)c1` (stereo not shown) [Acebutolol]: the “½ Life” value is 3 h.
For `CC(=O)c1ccc2c(c1)N(CCCN(C)C)c1ccccc1S2` [Acepromazine], the “½ Life” value is 3 h.
As to `CC(=O)Nc1ccc(O)cc1` [Acetaminophen], the “½ Life” value is 1 h.
In the case of `CC(=O)Nc1nnc(S(N)(=O)=O)s1` [Acetazolamide], the “½ Life” value was 3 h.
With `CC(=O)c1ccc(S(=O)(=O)NC(=O)NC2CCCCC2)cc1` [Acetohexamide], the “½ Life” value was 1.3 h.
For `CC(=O)N[C@@H](CS)C(=O)O` [Acetylcysteine], the “½ Life” value was 5.6 h.
For `O=C(O[C@H]1C[N+]2(CCCOc3ccccc3)CCC1CC2)C(O)(c1cccs1)c1cccs1` [Aclidinium], the “½ Life” value was 2.4 h.
Consider `COc1ccc2cccc(CCNC(C)=O)c2c1` [Agomelatine], for which the “½ Life” value is 2 h.
With `Oc1ncnc2[nH]ncc12` [Allopurinol], the “½ Life” value is 1 h.
Take `CN(C)CCc1c[nH]c2ccc(CS(=O)(=O)N3CCCC3)cc12` [Almotriptan]: the “½ Life” value is 3 h.
For `C=CCc1ccccc1OCC(O)CNC(C)C` (stereo not shown) [Alprenolol], the “½ Life” value is 2 h.
Turning to `NCCCNCCSP(=O)(O)O` [Amifostine], the “½ Life” value was 0.133 h.
As for `NCCCCCC(=O)O` [Aminocaproic Acid], the “½ Life” value was 2 h.
Consider `NCC(=O)CCC(=O)O` [Aminolevulinic acid], for which the “½ Life” value was 0.7 h.
Turning to `CC(C)c1ccc2oc3nc(N)c(C(=O)O)cc3c(=O)c2c1` [Amlexanox], the “½ Life” value is 3.5 h.
On to `Nc1cc(-c2ccncc2)c[nH]c1=O` [Amrinone], for which the “½ Life” value was 5 h.
Take `O=C1CN2Cc3c(ccc(Cl)c3Cl)N=C2N1` [Anagrelide]: the “½ Life” value is 0.5 h.
`CN1CCc2cccc3c2[C@H]1Cc1ccc(O)c(O)c1-3` [Apomorphine]: the “½ Life” value is 0.66 h.
For `COC(=O)[C@H](Cc1ccccc1)NC(=O)[C@@H](N)CC(=O)O` [Aspartame] (H-Asp-Phe-OMe), the “½ Life” value is 4.3 h.
Turning to `CNCC[C@@H](Oc1ccccc1C)c1ccccc1` [Atomoxetine], the “½ Life” value was 5 h.
For the compound `COc1ccc(CC2c3cc(OC)c(OC)cc3CC[N+]2(C)CCC(=O)OCCCCCOC(=O)CC[N+]2(C)CCc3cc(OC)c(OC)cc3C2Cc2ccc(OC)c(OC)c2)cc1OC` (stereo not shown) [Atracurium], the “½ Life” value is 0.33 h.
Regarding `COc1ccc(CN=c2[nH]c(N3CCC[C@H]3CO)ncc2C(=O)NCc2ncccn2)cc1Cl` [Avanafil], the “½ Life” value is 5.36 h.
Take `CNC(=O)c1ccccc1Sc1ccc2c(/C=C/c3ccccn3)n[nH]c2c1` [Axitinib]: the “½ Life” value was 2.5 h.
In the case of `NCC(CC(=O)O)c1ccc(Cl)cc1` (stereo not shown) [Baclofen], the “½ Life” value is 2.5 h.
With `CCCCNc1ccc(C(=O)OCCOCCOCCOCCOCCOCCOCCOCCOCCOC)cc1` [Benzonatate], the “½ Life” value was 3 h.
For the compound `CCN(CC)C(=O)C1CN2CCc3cc(OC)c(OC)cc3C2CC1OC(C)=O` (stereo not shown) [Benzquinamide], the “½ Life” value is 1 h.
For the compound `CNCCc1ccccn1` [Betahistine], the “½ Life” value is 3 h.
In the case of `C[C@H]1C[C@H]2[C@@H]3CCC4=CC(=O)C=C[C@]4(C)[C@@]3(F)[C@@H](O)C[C@]2(C)[C@@]1(O)C(=O)CO` [Betamethasone], the “½ Life” value was 5.6 h.
Take `CC(C)(Oc1ccc(CCNC(=O)c2ccc(Cl)cc2)cc1)C(=O)O` [Bezafibrate, reference compound]: the “½ Life” value was 1 h.
Take `CCNC(=O)CCC/C=C\C[C@@H]1[C@@H](/C=C/[C@@H](O)CCc2ccccc2)[C@H](O)C[C@@H]1O` [Bimatoprost]: the “½ Life” value is 0.75 h.
Take `Nc1nc(N/N=C/C2CCCCC2)nc2c1ncn2[C@@H]1O[C@H](CO)[C@@H](O)[C@H]1O` [Binodenoson]: the “½ Life” value was 0.166 h.
Turning to `COc1ccccc1Oc1c(NS(=O)(=O)c2ccc(C(C)(C)C)cc2)nc(-c2ncccn2)nc1OCCO` [Bosentan], the “½ Life” value is 5 h.
Turning to `Brc1c(NC2=NCCN2)ccc2nccnc12` [Brimonidine], the “½ Life” value is 2 h.
With `CC(C)C[C@H]1C(=O)N2CCC[C@H]2[C@]2(O)O[C@](NC(=O)[C@@H]3C=C4c5cccc6[nH]c(Br)c(c56)C[C@H]4N(C)C3)(C(C)C)C(=O)N12` [Bromocriptine], the “½ Life” value is 2 h.
Regarding `CCCC1O[C@@H]2C[C@H]3[C@@H]4CCC5=CC(=O)C=C[C@]5(C)[C@H]4[C@@H](O)C[C@]3(C)[C@]2(C(=O)CO)O1` (stereo partly shown) [Budesonide], the “½ Life” value was 2 h.
Take `CCCCNc1cc(C(=O)O)cc(S(N)(=O)=O)c1Oc1ccccc1` [Bumetanide]: the “½ Life” value was 1 h.
Turning to `CCCCN1CCCCC1C(=O)Nc1c(C)cccc1C` (stereo not shown) [Bupivacaine], the “½ Life” value is 2.7 h.
Take `Cc1ccc(Cl)c(OCC(O)CNC(C)(C)C)c1` (stereo not shown) [Bupranolol]: the “½ Life” value is 2 h.
As to `CO[C@H]1C(=O)[C@]2(C)[C@@H](OC)C[C@H]3OC[C@@]3(OC(C)=O)[C@H]2[C@H](OC(=O)c2ccccc2)[C@]2(O)C[C@H](OC(=O)[C@H](O)[C@@H](NC(=O)OC(C)(C)C)c3ccccc3)C(C)=C1C2(C)C` [Cabazitaxel], the “½ Life” value is 4 h.
Turning to `C=C1/C(=C\C=C2/CCC[C@]3(C)[C@@H]([C@H](C)CCCC(C)(C)O)CC[C@@H]23)C[C@@H](O)C[C@@H]1O` [Calcitriol], the “½ Life” value was 5 h.
Regarding `CCCCCOC(=O)Nc1nc(=O)n([C@@H]2O[C@H](C)[C@@H](O)[C@H]2O)cc1F` [Capecitabine], the “½ Life” value was 0.75 h.
With `C[C@@](Cc1ccc(O)c(O)c1)(NN)C(=O)O` [Carbidopa], the “½ Life” value is 1 h.

The same data set, now with this note: in vivo; cited from earlier work.
Take `N[C@@H]1C[C@H]1c1ccccc1` (racemic) [Tranylcypromine]: the “½ Life” value is 1.5 h.
Take `CN(C)Cc1nnc2n1-c1ccc(Cl)cc1C(c1ccccc1)=NC2` [Adinazolam]: the “½ Life” value was 3 h.
Regarding `CC(C)C(=O)O[C@@H](OC(=O)NC[C@H](CC(=O)O)c1ccc(Cl)cc1)C(C)C` [Arbaclofen Placarbil], the “½ Life” value is 0.1 h.
On to `Oc1ccc(CCCCNC[C@H](O)c2ccc(O)c(O)c2)cc1` [Arbutamine], for which the “½ Life” value was 0.133 h.
As for `C[C@H]1C[C@H]2[C@@H]3CCC4=CC(=O)C=C[C@]4(C)[C@@]3(Cl)[C@@H](O)C[C@]2(C)[C@@]1(O)C(=O)CO` [Beclomethasone], the “½ Life” value is 2.8 h.
Regarding `Cn1c(=O)c2c(ncn2C)n(C)c1=O` [Caffeine], the “½ Life” value is 3 h.
In the case of `O=NN(CCCl)C(=O)NCCCl` [Carmustine], the “½ Life” value was 0.25 h.
